We go through six molecules from ChEMBL document CHEMBL1149290, “Discovery of tetralin carboxamide growth hormone secretagogue receptor antagonists via scaffold manipulation” (J Med Chem, 2004).

Data set [1] is described as follows: Clearance in rat. Type of data set: ADME, organism-based. To be noted: in vivo.
For data set [2], the target named is Growth hormone secretagogue receptor type 1 (Homo sapiens, UniProt Q92847). Nature of the data set: Binding affinity to GHSR.
Data set [3] has as its target Muscarinic acetylcholine receptor. Nature of the data set: Inhibition of muscarinic receptor. It counts as protein assay, Homo sapiens.
Data set [4] in a line: Inhibition of dopaminergic receptor. Set-up: species or system Homo sapiens.
Data set [5] deals with Voltage-gated inwardly rectifying potassium channel KCNH2 (Homo sapiens, UniProt Q12809). Nature of the data set: Inhibition of hERG receptor. It counts as toxicity. On the technique in general: The hERG channel carries a current that helps repolarise heart muscle cells.
Sequence of Voltage-gated inwardly rectifying potassium channel KCNH2 (Q12809 whole entry): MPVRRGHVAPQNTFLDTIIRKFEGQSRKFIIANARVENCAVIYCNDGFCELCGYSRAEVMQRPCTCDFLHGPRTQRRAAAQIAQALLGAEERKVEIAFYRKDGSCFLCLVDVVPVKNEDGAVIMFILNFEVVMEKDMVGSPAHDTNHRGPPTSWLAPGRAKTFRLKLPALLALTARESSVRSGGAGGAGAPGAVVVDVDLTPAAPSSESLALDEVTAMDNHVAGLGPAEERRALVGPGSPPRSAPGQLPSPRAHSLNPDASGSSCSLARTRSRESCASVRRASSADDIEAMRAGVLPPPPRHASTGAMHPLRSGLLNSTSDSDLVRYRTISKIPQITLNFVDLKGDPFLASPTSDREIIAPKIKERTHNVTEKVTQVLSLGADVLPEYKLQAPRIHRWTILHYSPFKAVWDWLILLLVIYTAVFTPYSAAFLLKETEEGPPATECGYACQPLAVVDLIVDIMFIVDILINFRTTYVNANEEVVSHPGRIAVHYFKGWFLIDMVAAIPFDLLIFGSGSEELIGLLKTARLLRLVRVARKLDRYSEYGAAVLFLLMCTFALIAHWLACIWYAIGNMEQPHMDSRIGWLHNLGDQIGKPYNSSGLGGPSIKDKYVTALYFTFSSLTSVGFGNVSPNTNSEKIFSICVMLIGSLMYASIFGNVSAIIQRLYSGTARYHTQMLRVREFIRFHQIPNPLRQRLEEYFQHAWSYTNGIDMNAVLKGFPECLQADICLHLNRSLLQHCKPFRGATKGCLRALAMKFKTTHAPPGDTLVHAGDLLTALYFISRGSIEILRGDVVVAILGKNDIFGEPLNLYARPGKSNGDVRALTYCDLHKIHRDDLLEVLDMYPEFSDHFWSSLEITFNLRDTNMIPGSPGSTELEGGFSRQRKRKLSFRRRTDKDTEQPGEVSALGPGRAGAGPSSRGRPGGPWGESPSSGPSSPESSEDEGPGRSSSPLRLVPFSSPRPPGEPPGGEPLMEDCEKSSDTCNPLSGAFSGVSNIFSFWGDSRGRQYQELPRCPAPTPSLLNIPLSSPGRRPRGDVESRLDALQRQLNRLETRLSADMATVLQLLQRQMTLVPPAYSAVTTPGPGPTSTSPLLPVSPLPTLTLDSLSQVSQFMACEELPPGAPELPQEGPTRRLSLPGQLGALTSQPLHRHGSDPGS
Data set [6] can be described thus: Inhibition of adrenergic receptor. Set-up: species or system Homo sapiens.
Data set [7] can be described thus: Inhibition of histaminergic receptor.
The nature of data set [8]: Oral bioavailability in rat. Type of data set: ADME, organism-based. To be noted: in vivo.

Each structure is given as a SMILES string.

The term clearance denotes the volume of plasma or blood freed of the substance per unit of time. A low value points to inefficient removal. In general, IC50 refers to the concentration at which inhibition is half-maximal. Broadly, the bioavailability is the share of a dose that reaches the circulation, judged against a reference dose that is usually intravenous. The low end stands for poor availability, the high end for good availability.

Sequence of Growth hormone secretagogue receptor type 1 (Q92847 whole entry): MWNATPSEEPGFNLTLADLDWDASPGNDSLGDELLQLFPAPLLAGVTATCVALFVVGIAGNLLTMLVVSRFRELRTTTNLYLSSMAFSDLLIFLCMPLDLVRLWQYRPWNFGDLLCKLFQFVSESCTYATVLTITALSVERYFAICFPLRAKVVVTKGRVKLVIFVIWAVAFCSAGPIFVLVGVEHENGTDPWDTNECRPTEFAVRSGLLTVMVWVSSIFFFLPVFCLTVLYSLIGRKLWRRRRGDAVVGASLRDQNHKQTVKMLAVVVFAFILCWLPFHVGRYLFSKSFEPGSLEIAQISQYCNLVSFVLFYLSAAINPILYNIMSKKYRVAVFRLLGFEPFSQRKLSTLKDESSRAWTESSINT

`CCN(CC)c1ccc(NC(=O)c2c(-c3c(Cl)cccc3Cl)noc2C)cc1` had a clearance in data set [1] of 61.7 mL/min/kg.

For the molecule `CCN(CC)c1ccc(NC(=O)C2CCc3ccccc3C2)cc1` (racemic), in data set [2], the IC50 was 2.7 µM (antagonist).

On to `CCN(CC)c1ccc(NC(=O)C2(NC(=O)OCC(C)C)CCc3ccccc3C2)cc1` (racemic), for which, in data set [2], the IC50 is 0.011 µM (antagonist).

As to `CCN(CC)c1ccc(NC(=O)C2(NC(=O)OC(C)(C)C)CCc3ccccc3C2)cc1` (racemic), the IC50 in data set [2] was 0.12 µM (antagonist).

Take `CCN(CC)c1ccc(NC(=O)C2(N(C)C(=O)OCC(C)C)CCc3cccc(OC)c3C2)cc1` (racemic): the IC50 was above 33 µM in data set [3]; above 33 µM in data set [4]; 6.1 µM in data set [5]; above 33 µM in data set [6]; above 33 µM in data set [7]. The molecule further had a clearance in data set [1] of 21.7 mL/min/kg. The bioavailability in data set [8] is 19%.

As to `CCN(CC)c1ccc(NC(=O)C2(NC(=O)OCC(C)C)CCc3cccc(Cl)c3C2)cc1` (racemic), the bioavailability in data set [8] was found to be 3.8%. For the same molecule, in data set [2], the IC50 was 0.002 µM (antagonist).
